Our source for the EC50 values is US9663496B2, “AMPK-activating heterocyclic compounds and methods for using the same” (Rigel Pharmaceuticals, Inc., priority 2010, dated 2017).

The target in the experiment is AMPK. Kind of experiment: AMPK activation, enzyme-linked immunosorbent assay. The format is biochemical. Particulars: EC50 for AMPK activation, ELISA. The method in brief: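 Read-out: immunodetected kinase activation after compound exposure, run with commercial kit reagents.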
On the technique in general: In an ELISA, binding on a coated surface is turned into a signal by an enzyme label.
By EC50 is commonly meant the concentration that produces a half-maximal response. A high value points to a less potent agent. The molecule `COc1ccc(C(=O)C2CCN(C(=O)c3ccc(C(=O)NC4CCN(Cc5ccc(C#N)cc5)CC4(F)F)cn3)CC2)cc1` (stereo not drawn) [Compound 498, N-(1-(4-cyanobenzyl)-3,3-difluoropiperidin-4-yl)-6-(4-(4-methoxybenzoyl)piperidine-1-carbonyl)nicotinamide] showed an EC50 of under 0.5 µM.
The figure for `O=C(c1ccc(C(=O)N2CCN(CCc3ccccc3)CC2)nc1)N1CCN(Cc2ccc(F)cc2)CC1` [Compound 88, (4-(4-fluorobenzyl)piperazin-1-yl)(6-(4-phenethylpiperazine-1-carbonyl)pyridin-3-yl)methanone] is 1 to 5 µM; for `CS(=O)(=O)c1ccc(CN2CCC(NC(=O)c3ccc(C(=O)N4CCC(C(=O)c5ccc(F)cc5F)CC4)nc3)CC2)cc1` [Compound 213, 6-(4-(2,4-difluorobenzoyl)piperidine-1-carbonyl)-N-(1-(4-(methylsulfonyl)benzyl)piperidin-4-yl)nicotinamide] it is under 0.5 µM; for `O=C(NC1CCN(Cc2ccc(F)cc2)CC1)c1ccc(C(=O)N2CCN(Cc3ccc(F)cc3)CC2)nc1` [Compound 328, 6-(4-(4-fluorobenzyl)piperazine-1-carbonyl)-N-(1-(4-fluorobenzyl)piperidin-4-yl)nicotinamide] it is under 0.5 µM.
Turning to `COc1ccc(OC2CCN(C(=O)c3ccc(C(=O)N[C@H]4CC[C@@H](Oc5ccc(C#N)cc5)CC4)nc3)CC2)cc1` [Compound 174, N-((cis)-4-(4-cyanophenoxy)cyclohexyl)-5-(4-(4-methoxyphenoxy)piperidine-1-carbonyl)picolinamide], the EC50 was under 0.5 µM.
The molecule `N#Cc1ccc(CN2CCC(NC(=O)c3ccc(C(=O)N4CCN(c5ccc(C(=O)C(F)(F)F)cc5)CC4)cn3)CC2)cc1` [Compound 263, N-(1-(4-cyanobenzyl)piperidin-4-yl)-5-(4-(4-(2,2,2-trifluoroacetyl)phenyl)piperazine-1-carbonyl)picolinamide] yielded an EC50 of under 0.5 µM.
`CC(C)(c1ccccc1)N1CCN(C(=O)c2ccc(C(=O)NC3CCN(Cc4ccc(C#N)cc4)CC3)nc2)CC1` [Compound 133, N-(1-(4-cyanobenzyl)piperidin-4-yl)-5-(4-(2-phenylpropan-2-yl)piperazine-1-carbonyl)picolinamide] returned an EC50 of under 0.5 µM.
In turn, `O=C(Nc1ccc(Br)cc1)c1ccc(C(=O)N2CCN(Cc3ccc(F)cc3)CC2)cn1` [Compound 28, N-(4-bromophenyl)-5-(4-(4-fluorobenzyl)piperazine-1-carbonyl)picolinamide] displayed an EC50 of 0.5 to 1 µM.
The figure for `COc1ccc(CN2CCC(NC(=O)c3ccc(C(=O)N4CCC(Oc5ccc(NC(C)=O)cc5)CC4)nc3)CC2)cc1` [Compound 407, 6-(4-(4-acetamidophenoxy)piperidine-1-carbonyl)-N-(1-(4-methoxybenzyl)piperidin-4-yl)nicotinamide] is under 0.5 µM; for `N#Cc1ccc(CN2CCC(NC(=O)c3ccc(C(=O)N4CCC(Oc5ccc(C#N)c(Cl)c5)CC4)cn3)CC2)cc1` [Compound 156, 5-(4-(3-chloro-4-cyanophenoxy)piperidine-1-carbonyl)-N-(1-(4-cyanobenzyl)piperidin-4-yl)picolinamide] it is under 0.5 µM.
`O=C(NC1CCN(Cc2cc(F)cc(F)c2)CC1)c1ccc(C(=O)N2CC[C@H](Oc3ccc(F)cc3)C2)cn1` [Compound 292, N-(1-(3,5-difluorobenzyl)piperidin-4-yl)-5-((S)-3-(4-fluorophenoxy)pyrrolidine-1-carbonyl)picolinamide] had an EC50 of under 0.5 µM.
The figure for `N#Cc1ccc(CN2CCC(NC(=O)c3ccc(C(=O)N4CC(OCc5ccc(F)cc5)C4)cn3)CC2)cc1` [Compound 307, N-(1-(4-cyanobenzyl)piperidin-4-yl)-5-(3-(4-fluorobenzyloxy)azetidine-1-carbonyl)picolinamide] is 0.5 to 1 µM; for `COc1ccc(C(=O)C2CCN(C(=O)c3ccc(C(=O)NC4CCN(Cc5ccc(N)cc5)CC4)cn3)CC2)cc1` [Compound 400, N-(1-(4-aminobenzyl)piperidin-4-yl)-6-(4-(4-methoxybenzoyl)piperidine-1-carbonyl)nicotinamide] it is 1 to 5 µM; for `COc1ccc(C(=O)C2CCN(c3ccc(C(=O)NC4CCN(Cc5ccc(C#N)cc5)CC4)nc3)CC2)cc1` [Compound 302, N-(1-(4-cyanobenzyl)piperidin-4-yl)-5-(4-(4-methoxybenzoyl)piperidin-1-yl)picolinamide] it is under 0.5 µM.
The figure for `N#Cc1ccc(CN2CCC(NC(=O)c3ccc(NC4CCN(c5ccccc5)CC4)cn3)CC2)cc1` [Compound 126, N-(1-(4-cyanobenzyl)piperidin-4-yl)-5-(1-phenylpiperidin-4-ylamino)picolinamide] is under 0.5 µM.
Molecule `O=C(NC1CCN(Cc2ccc(OC(F)(F)F)cc2)CC1)c1ccc(C(=O)N2CCC(Oc3cccc(NC(=O)C4CC4)c3)CC2)nc1` [Compound 438, 6-(4-(3-(cyclopropanecarboxamido)phenoxy)piperidine-1-carbonyl)-N-(1-(4-(trifluoromethoxy)benzyl)piperidin-4-yl)nicotinamide] yielded an EC50 of under 0.5 µM.
The figure for `CC(=O)c1ccc(OC2CCN(C(=O)c3ccc(C(=O)Nc4ccc(Oc5ccc(F)cc5)nc4)cn3)CC2)cc1` [Compound 395, 6-(4-(4-acetylphenoxy)piperidine-1-carbonyl)-N-(6-(4-fluorophenoxy)pyridin-3-yl)nicotinamide] is under 0.5 µM.
As for `N#Cc1ccc(CN2CCC(NC(=O)c3ccc(C(=O)N4CCN(CC5CCCCC5)CC4)cn3)CC2)cc1` [Compound 95, N-(1-(4-cyanobenzyl)piperidin-4-yl)-5-(4-(cyclohexylmethyl)piperazine-1-carbonyl)picolinamide], the EC50 was under 0.5 µM.
The figure for `N#Cc1ccc(CN2CCC(NC(=O)c3ccc(C(=O)N4CCN(C(=O)c5ccccc5)CC4)cn3)CC2)cc1` [Compound 80, 5-(4-benzoylpiperazine-1-carbonyl)-N-(1-(4-cyanobenzyl)piperidin-4-yl)picolinamide] is 1 to 5 µM; for `O=C(NC1CCN(c2ccc(F)cc2)CC1)c1ccc(C(=O)N2CCN(Cc3ccc(F)cc3)CC2)nc1` [Compound 404, 6-(4-(4-fluorobenzyl)piperazine-1-carbonyl)-N-(1-(4-fluorophenyl)piperidin-4-yl)nicotinamide] it is 1 to 5 µM.
The figure for `O=C(c1ccc(C(=O)N2CCN(CCc3ccccc3)CC2)nc1)N1CCN(CCc2ccccc2)CC1` [Compound 92, pyridine-2,5-diylbis((4-phenethylpiperazin-1-yl)methanone)] is over 10 µM; for `N#Cc1ccc(CN2CCC(NC(=O)c3ccc(C(=O)N4CCC(Oc5ccc(S(=O)(=O)C(F)(F)F)cc5)CC4)nc3)CC2)cc1` [Compound 450, N-(1-(4-cyanobenzyl)piperidin-4-yl)-6-(4-(4-(trifluoromethylsulfonyl)phenoxy)piperidine-1-carbonyl)nicotinamide] it is under 0.5 µM.
With `N#Cc1ccc(CN2CCC(NC(=O)c3ccc(C(=O)N4CCC(C(O)c5ccc(F)cc5)CC4)cn3)CC2)cc1` (stereo not drawn) [Compound 142, N-(1-(4-cyanobenzyl)piperidin-4-yl)-5-(4-((4-fluorophenyl)(hydroxy)methyl)piperidine-1-carbonyl)picolinamide], the EC50 is under 0.5 µM.
`COc1ccc(N2CCC(Nc3ccc(C(=O)NC4CCN(Cc5ccc(C#N)cc5)CC4)nc3)CC2)cc1` [Compound 275, N-(1-(4-cyanobenzyl)piperidin-4-yl)-5-(1-(4-methoxyphenyl)piperidin-4-ylamino)picolinamide] had an EC50 of under 0.5 µM.
